This is an account of results in BindingDB's records for doi:10.1016/j.bmcl.2006.01.032 (Central Pharmaceutical Research Institute, 2006).

The nature of the assay: Inhibition of HCV RNA replication in Huh5-2 cells after 48 hrs.
By EC50 is commonly meant the concentration needed to bring the measured effect to its halfway point. A high value points to a less potent agent. The compound `O=C(O)c1ccc2c(c1)nc(-c1ccc(OC(c3ccccc3)c3ccccc3)cc1)n2C1CCCCC1` [2-(4-(benzhydryloxy)phenyl)-1-cyclohexyl-1H-benzo[d]imidazole-5-carboxylic acid] gave an EC50 of 2600 nM.
The result for `O=C(O)c1ccc2c(c1)nc(-c1ccc(OC(c3cccc(F)c3)c3cccc(F)c3)cc1)n2C1CCCCC1` [2-(4-(bis(3-fluorophenyl)methoxy)phenyl)-1-cyclohexyl-1H-benzo[d]imidazole-5-carboxylic acid] reads 2800 nM; that for `O=C(O)c1ccc2c(c1)nc(-c1ccc(OC(c3ccc(F)cc3)c3ccc(F)cc3)cc1)n2C1CCCCC1` [2-(4-(bis(4-fluorophenyl)methoxy)phenyl)-1-cyclohexyl-1H-benzo[d]imidazole-5-carboxylic acid], 2200 nM.
Next, `O=C(O)c1ccc2c(c1)nc(-c1ccc(OC(c3ccccc3)c3ccccc3)cc1F)n2C1CCCCC1` [2-(4-(benzhydryloxy)-2-fluorophenyl)-1-cyclohexyl-1H-benzo[d]imidazole-5-carboxylic acid]: 1900 nM; `O=C(O)c1ccc2c(c1)nc(-c1ccc(OC(c3ccccc3)c3cccnc3)cc1F)n2C1CCCCC1` (stereo not given) [1-Cyclohexyl-2-[2-fluoro-4-(phenyl-pyridin-3-yl-methoxy)-phenyl]-1H-benzoimidazole-5-carboxylic acid]: 1100 nM; `O=C(O)c1ccc2c(c1)nc(-c1ccc(OC(c3ccc(F)cc3)c3ccc(F)cc3)cc1F)n2C1CCCCC1` [2-(4-(bis(4-fluorophenyl)methoxy)-2-fluorophenyl)-1-cyclohexyl-1H-benzo[d]imidazole-5-carboxylic acid]: 1600 nM.
As to `O=C(O)c1ccc2c(c1)nc(-c1ccc(OC(c3ccc(Cl)cc3)c3ccc(Cl)cc3)cc1)n2C1CCCCC1` [2-(4-(bis(4-chlorophenyl)methoxy)phenyl)-1-cyclohexyl-1H-benzo[d]imidazole-5-carboxylic acid], the EC50 amounted to 3600 nM.
`CN(C)C(=O)c1ccc(C(Oc2ccc(-c3nc4cc(C(=O)O)ccc4n3C3CCCCC3)c(F)c2)c2ccc(C(=O)N(C)C)cc2)cc1` [2-{4-[Bis-(4-dimethylcarbamoyl-phenyl)-methoxy]-2-fluoro-phenyl}-1-cyclohexyl-1H-benzoimidazole-5-carboxylic acid] gave an EC50 of 1200 nM.
The compound `Cc1ccc(C(Oc2ccc(-c3nc4cc(C(=O)O)ccc4n3C3CCCCC3)cc2)c2ccc(C)cc2)cc1` [1-cyclohexyl-2-(4-(dip-tolylmethoxy)phenyl)-1H-benzo[d]imidazole-5-carboxylic acid] came in with an EC50 of 3700 nM.
As for `O=C(O)c1ccc2c(c1)nc(-c1ccc(OC(c3cccnc3)c3cccnc3)cc1F)n2C1CCCCC1` [1-Cyclohexyl-2-[4-(di-pyridin-3-yl-methoxy)-2-fluoro-phenyl]-1H-benzoimidazole-5-carboxylic acid], the EC50 stood at 2600 nM.
